The record followed here is patent US20070009597A1, “Active substance combination comprising a compound with npy receptor affinity and a compound with 5-ht6 receptor affinity” (LABORATORIOS DEL DR. ESTEVE S.A., priority 2003, published 2007).

This assay has as its target T1, recombinant human 5HT6 receptor (Homo sapiens, UniProt P50406).
T1 construct: purchased Receptor Biology; host or cells: HEK-293
Briefly: Binding to the 5HT6 serotonin receptor ([3H]-LSD, HEK-293 cell membranes). The note with it: for inhibition at 1 µM: read-out: % Inhibition 10^−6 M. Here is the method:
Binding to the 5HT6 Serotonin Receptor
The respective part of the literature descriptions is incorporated here by reference and form part of the disclosure. […] The assays are carried out in triplicate.

The mark [1] stands for this setting: 10^−6 M, table 1d, compounds of general formula (Id).
Setting [2] is: 10^−6 M, table 1f, compounds of general formula (If).
Setting [3] is: table 1f, compounds of general formula (If).
Where [4] appears, read: table 1c, compounds of general formula (Ic).
The mark [5] stands for this setting: table 1e, compounds of general formula (Ie).
[6] abbreviates: table 1h, compounds of general formula (Ih).
Setting [7] is: 10^−6 M, table 2b, compounds of general formula (Ib).
[8] abbreviates: 10^−6 M, table 1c, compounds of general formula (Ic).

Where a name gives a salt, the structure may show the parent alone. Read-outs that look alike come from different tables or passages of the source.

T1 sequence (P50406 whole entry): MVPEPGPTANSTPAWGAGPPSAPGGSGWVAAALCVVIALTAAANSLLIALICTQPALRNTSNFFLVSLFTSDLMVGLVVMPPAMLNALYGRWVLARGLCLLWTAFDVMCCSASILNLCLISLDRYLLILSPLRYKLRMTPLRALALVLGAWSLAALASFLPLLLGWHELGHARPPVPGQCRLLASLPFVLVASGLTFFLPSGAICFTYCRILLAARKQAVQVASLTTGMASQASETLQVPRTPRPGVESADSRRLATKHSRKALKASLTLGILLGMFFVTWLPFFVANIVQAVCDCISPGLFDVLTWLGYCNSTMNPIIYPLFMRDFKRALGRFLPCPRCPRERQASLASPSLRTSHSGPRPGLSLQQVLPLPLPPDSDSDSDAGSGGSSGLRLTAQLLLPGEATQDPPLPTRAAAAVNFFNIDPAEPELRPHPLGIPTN

Consider `O=C1OCc2ccccc2N1C1CCN(S(=O)(=O)c2cccc3ccccc23)CC1` [Example 1b, 1-[1-(Naphthyl-1-sulfonyl)-piperidine-4-yl]-1,4-dihydro-benzo[d][1,3]oxazine-2-one], for which the Ki was 51.7 nM and the inhibition at 1 µM was 98.1 ± 4%. Take `Cc1c(S(=O)(=O)Nc2cccc3c2ccn3CCN(C)C)sc2ccc(Cl)cc12` [Example 1d, N-[1-(2-dimethylaminoethyl)-1H-indole-4-yl]-5-chloro-3-methylbenzo[b]thiophene-2-sulfonamide]: under setting [1], the inhibition at 1 µM is 83.9%. For the molecule `Cc1c(S(=O)(=O)Nc2ccc3ccn(CCN(C)C)c3c2)sc2ccc(Cl)cc12` [Example 1f, N-[1-(2-Dimethylaminoethyl)-1H-indol-6-yl]-5-chloro-3-methylbenzo[b]thiophene-2-sulfonamide], the inhibition at 1 µM under setting [2] turned out to be 98.6%. Also, the Ki under setting [3] turned out to be 90.2 nM.

Turning to `CN1CC=C(c2cn(S(=O)(=O)C3CCCCC3)c3ccc([N+](=O)[O-])cc23)CC1` [Example 1h, 1-cyclohexanesulfonyl-3-(1-methyl-1,2,3,6-tetrahydropyridine-4-yl)-5-nitro-1H-indole], for the setting “10^−6 M, table 1h, compounds of general formula (Ih)”, the inhibition at 1 µM worked out at 59.8 ± 3%. Take `CN(C)CCn1ccc2c(NS(=O)(=O)c3ccc4ccccc4c3)cccc21` [Example 2d, N-[1-(2-dimethylaminoethyl)-1H-indole-4-yl]-naphtalene-2-sulfonamide]: the “% Inhibition 10^−6 M” value under setting [1] is listed as 104.3%. As to `CN(C)CCn1ccc2ccc(NS(=O)(=O)c3ccc4ccccc4c3)cc21` [Example 2f, N-[1-(2-Dimethylaminoethyl)-1H-indol-6-yl]-naphthalene-2-sulfonamide], the Ki came out at 41.2 nM and the inhibition at 1 µM stood at 97.7%. For `Cc1c(S(=O)(=O)N2CCC(N3C(=O)OCc4ccccc43)CC2)sc2ccc(Cl)cc12` [Example 3b, 1-[1-(5-chloro-3-methyl-benzo[b]tiophene-2-sulfonyl)-piperidine-4-yl]-1,4-dihydro-benzo[d][1,3]oxazine-2-one], the Ki was determined as 107 nM. As to `CCN(CC)CCc1c[nH]c2ccc(NS(=O)(=O)c3cccc4ccccc34)cc12` [Example 3c, Hydrochloride N-[3-(2-diethylaminoethyl)-1H-indol-5-yl]naphthalene-1-sulphonamide], the Ki under setting [4] was 3.5 nM.

`CN(C)CCn1ccc2c(NS(=O)(=O)c3cccc4ccccc34)cccc21` [Example 3d, N-[1-(2-dimethylaminoethyl)-1H-indole-4-yl]-naphtalene-1-sulfonamide]: the “% Inhibition 10^−6 M” value under setting [1] was 94.8%. Regarding `CN(C)CCn1ccc2cc(NS(=O)(=O)c3cccc4ccccc34)ccc21` [Example 3e, N-[1-(2-dimethylaminoethyl)-1H-indole-5-yl]-naphthalene-1-sulfonamide], the Ki under setting [5] turned out to be 94.2 nM. Take `CN(C)CCn1ccc2ccc(NS(=O)(=O)c3cccc4ccccc34)cc21` [Example 3f, N-[1-(2-Dimethylaminoethyl)-1H-indol-6-yl]-naphthalene-1-sulfonamide]: under setting [2], the “% Inhibition 10^−6 M” value came out at 95.3%. In addition, the Ki under setting [3] is 19.8 nM. Take `CN1CC=C(c2cn(S(=O)(=O)C3CCCCC3)c3ccc(N)cc23)CC1` [Example 3h, 5-amino-1-cyclohexanesulfonyl-3-(1-methyl-1,2,3,6-tetrahydropyridine-4-yl)-1H-indole]: the Ki under setting [6] amounted to 55.1 nM.

Consider `Cc1cccc2c1N(C1CCN(S(=O)(=O)c3cccc4ccccc34)CC1)C(=O)OC2` [Example 4b, 8-Methyl-1-[1-(naphthyl-1-sulfonyl)-piperidine-4-yl]-1,4-dihydro-benzo[d][1,3]oxazine-2-one], for which the inhibition constant (Ki) was determined as 246 nM. Take `CCN(CC)CCc1c[nH]c2ccc(NS(=O)(=O)c3cc(Cl)cc(Cl)c3)cc12` [Example 4c, N-[3-(2-diethylaminoethyl)-1H-indol-5-yl]-3,5-dichlorobenzenesulphonamide]: under setting [4], the Ki was 9.3 nM. `CN(C)CCn1ccc2c(NS(=O)(=O)c3ccc(-c4ccccc4)cc3)cccc21` [Example 4d, N-[1-(2-dimethylaminoethyl)-1H-indole-4-yl]-4-phenylbenzenesulfonamide]: the inhibition at 1 µM under setting [1] was determined as 46.6%.

Take `CN(C)CCn1ccc2cc(NS(=O)(=O)c3cccc4c(Cl)cccc34)ccc21` [Example 4e, N-[1-(2-dimethylaminoethyl)-1H-indole-5-yl]-5-chloronaphthalene-1-sulfonamide]: the Ki under setting [5] came out at 112 nM. For `CN(C)CCn1ccc2ccc(NS(=O)(=O)c3c(Cl)nc4sccn34)cc21` [Example 4f, N-[1-(2-Dimethylaminoethyl)-1H-indol-6-yl]-6-chloroimidazo[2,1-b]thiazole-5-sulfonamide], the inhibition at 1 µM under setting [2] was 90.8%. Besides, the Ki under setting [3] was found to be 55.2 nM. For `O=S(=O)(C1CCCCC1)n1cc(C2=CCN3CCCC3C2)c2cc(F)ccc21` (stereo not shown) [Example 4h, 1-cyclohexanesulfonyl-5-fluoro-3-(1,2,3,5,8,8a-hexahydro-indolizine-7-yl)-1H-indole], under setting [6], the Ki stood at 191 nM. Regarding `O=C1OCc2ccccc2N1C1CCN(S(=O)(=O)c2cccc3cccnc23)CC1` [Example 5b], the Ki amounted to 152 nM. Consider `CCN(CC)CCc1c[nH]c2ccc(NS(=O)(=O)c3ccc(-c4ccccc4)cc3)cc12` [Example 5c, N-[3-(2-diethylaminoethyl)-1H-indol-5-yl]-4-phenylbenzenesulphonamide], for which the Ki under setting [4] was determined as 1 nM.

On to `CN(C)CCn1ccc2ccc(NS(=O)(=O)c3ccc(-c4ccccc4)cc3)cc21` [Example 5f, N-[1-(2-Dimethylaminoethyl)-1H-indol-6-yl]-4-phenylbenzenesulfonamide], for which, under setting [2], the inhibition at 1 µM turned out to be 93.4%. Consider `Cc1cccc2c1N(C1CCN(S(=O)(=O)c3cccc4cccnc34)CC1)C(=O)OC2` [Example 6b, 8-Methyl-1-[1-(quinolinyl-8-sulfonyl)-piperidine-4-yl]-1,4-dihydro-benzo[d][1,3]oxazine-2-one], for which the Ki (table 2b, compounds of general formula (Ib)) was 166 nM. As for `CN(C)CCn1ccc2c(NS(=O)(=O)c3ccc(Oc4ccccc4)cc3)cccc21` [Example 6d, N-[1-(2-dimethylaminoethyl)-1H-indole-4-yl]-4-phenoxybenzenesulfonamide], the “% Inhibition 10^−6 M” value under setting [1] is reported as 55.8%.

As for `CN(C)CCn1ccc2ccc(NS(=O)(=O)CCc3cccc4ccccc34)cc21` [Example 6f, N-[1-(2-Dimethylaminoethyl)-1H-indol-6-yl]-2-(naphthalene-1-yl)-ethanesulfonamide], the inhibition at 1 µM under setting [2] was 94.5%. Besides, the Ki under setting [3] was determined as 74.5 nM.

For `Cc1cccc2c1N(C1CCN(S(=O)(=O)c3cccc4c(N(C)C)cccc34)CC1)C(=O)OC2` [Example 7b, 1-[1-(5-Dimethylamino-naphthyl-1-sulfonyl)-piperidine-4-yl]-8-Methyl-1,4-dihydro-benzo[d][1,3]oxazine-2-one], the inhibition at 1 µM under setting [7] stood at 88%. Turning to `CN(C)CCn1ccc2ccc(NS(=O)(=O)c3ccc(Oc4ccccc4)cc3)cc21` [Example 7f, N-[1-(2-Dimethylaminoethyl)-1H-indol-6-yl]-4-phenoxybenzenesulfonamide], the “% Inhibition 10^−6 M” value under setting [2] is 95.1%. Further, under setting [3], the Ki came out at 119 nM.

Take `CN(C)c1cccc2c(S(=O)(=O)N3CCC(N4C(=O)OCc5ccccc54)CC3)cccc12` [Example 8b, 1-[1-(5-Dimethylamino-naphthyl-1-sulfonyl)-piperidine-4-yl]-1,4-dihydro-benzo[d][1,3]oxazine-2-one]: under setting [7], the inhibition at 1 µM was 68%. Regarding `CN(C)CCn1ccc2ccc(NS(=O)(=O)c3cc(Cl)cc(Cl)c3)cc21` [Example 8f, N-[1-(2-Dimethylaminoethyl)-1H-indol-6-yl]-3,5-dichlorobenzenesulfonamide], the inhibition at 1 µM under setting [2] was determined as 86.9%. Further, the Ki under setting [3] worked out at 159 nM. `CN(C)CCn1ccc2cc(NS(=O)(=O)c3c(Cl)nc4sccn34)ccc21` [Example 11e, N-[1-(2-dimethylaminoethyl)-1H-indole-5-yl]-6-chloroimidazo[2,1-b]thiazole-5-sulfonamide]: the Ki under setting [5] amounted to 1.89 nM.

Regarding `CN(C)CCn1ccc2cc(NS(=O)(=O)c3cc(Cl)cc(Cl)c3)ccc21` [Example 12e, N-[1-(2-dimethylaminoethyl)-1H-indole-5-yl]-3,5-dichlorobenzenesulfonamide], the Ki under setting [5] was 105 nM.

On to `CN1CCC(c2c[nH]c3ccc(NS(=O)(=O)c4cccc5ccccc45)cc23)CC1` [Example 13c, N-[3-(1-methylpiperidin-4-yl)-1H-indol-5-yl]naphthalene-1-sulphonamide hydrochloride], for which the Ki amounted to 4.7 nM.

In the case of `CN(C)CCn1ccc2cc(NS(=O)(=O)c3cccc(Br)c3)ccc21` [Example 13e, N-[1-(2-dimethylaminoethyl)-1H-indole-5-yl]-3-bromobenzenesulfonamide], the Ki under setting [5] worked out at 82.5 nM. As to `CN1CCC(c2c[nH]c3ccc(NS(=O)(=O)c4ccc(Cl)s4)cc23)CC1` [Example 14c, N-[3-(1-methylpiperidin-4-yl)-1H-indol-5-yl]-5-chlorothiophene-2-sulphonamide], under setting [8], the “% Inhibition 10^−6 M” value is recorded as 95.7 ± 3.4%. In addition, the Ki under setting [4] is 24.3 nM.

With `CN1CCC(c2c[nH]c3ccc(NS(=O)(=O)c4ccc(-c5ccccc5)cc4)cc23)CC1` [Example 15c, N-[3-(1-methylpiperidin-4-yl)-1H-indol-5-yl]-4-phenylbenzenesulphonamide], the “% Inhibition 10^−6 M” value under setting [8] is recorded as 97.4 ± 0.8%. Besides, the Ki under setting [4] was found to be 6.8 nM. The matching figures for `CN1CCC(c2c[nH]c3ccc(NS(=O)(=O)c4cccc5cccnc45)cc23)CC1` [Example 16c, N-[3-(1-methylpiperidin-4-yl)-1H-indol-5-yl]quinoline-8-sulphonamide]: 94.4 ± 8.6% and 21.2 nM.
